# Results: US20210283073A1, “AGENT FOR INHIBITING RECURRENCE OF HEM[…] PATIENTS WHO HAVE UNDERGONE HEMATOPOIETIC STEM CELL TRANSPLANTATION” (Priothera Limited, priority 2018, published 2021)
# Where two headings read alike, the source gives them in different places.
# System: patients who have undergone hematopoietic stem cell transplantation for the treatment of hematological malignancies
# Settings: for number of days of recurrence of hematological malignancies / number of days of death: days from allogeneic HSCT; for Recurrence rate / Survival rate: one year after allogeneic HSCT
# Method: The clinical tests were performed as described below
# The following four types of immunosuppressants were used in the clinical tests. • 2-Amino-2-[4-(3-benzyloxyphenylthio)-2-chlorophenyl] ethyl-propane-1,3-diol hydrochloride (prepared as capsules containing 0.5, 1, 2, 3, 4, or 5 mg in terms of 2-amino-2-[4-(3-benzyloxyphenylthio)-2-chlorophenyl] ethyl-propane-1,3-diol)) • Methotrexate • Cyclosporin A • Tacrolimus
# 23 patients participated in the clinical tests.
# The clinical tests was carried out according to the following schedule. However, changes were made appropriately depending on the condition of the patient and the like.
# A: Screening (from the −50th day to the −2nd day), Baseline (the −1st day)
# B: Treatment with 2-amino-2-[4-(3-benzyloxyphenylthio)-2-chlorophenyl] ethyl-propane-1,3-diol hydrochloride (from the 1st day to the 111th day)
# B′: Treatment with other immunosuppressants (according to hospital standards, and the like)
# C: Conditioning regimen (from the 2nd day to the 10th day)
# D: Allogeneic hematopoietic stem cell transplantation (the 11th day)
# E: Follow-up (from the 12th day to the 376th day), additional follow-up (from the 377th day)
# A predetermined amount of 2-amino-2-[4-(3-benzyloxyphenylthio)-2-chlorophenyl] ethyl-propane-1,3-diol hydrochloride was administered to the patients once a day, as well as, other immunosuppressants were administered to the patients on a dosing schedule and dosage according to the hospital standards and the like. The daily dosage of 2-amino-2-[4-(3-benzyloxyphenylthio)-2-chlorophenyl] ethyl-propane-1,3-diol hydrochloride administered to each patient (value in terms of 2-amino-2-[4-(3-benzyloxyphenylthio)-2-chlorophenyl] ethyl-propane-1,3-diol, the same is applied to the descriptions hereinafter), the administration period of time, and the types of the other immunosuppressants are shown in Table 2 (KRP: 2-amino-2-[4-(3-benzyloxyphenylthio)-2-chlorophenyl] ethyl-propane-1,3-diol hydrochloride, MTX: methotrexate, CyA: cyclosporin A, and Tac: tacrolimus).
# The conditions of patients who underwent allogeneic hematopoietic stem cell transplantation were subjected to following up for a certain period of time. In the table, the follow-up period, the number of days of recurrence of hematological malignancies and the number of days of death represent the number of days passing from the day when allogeneic hematopoietic stem cell transplantation was performed. The survival rate and recurrence rate were calculated in accordance with the Kaplan-Meier method.
# [1] = Patient No. 1, Multiple myeloma, KRP 3 mg + MTX + CyA, KRP 34 days, follow-up 749 days
# [2] = Patient No. 2, Acute lymphocytic leukemia, KRP 3 mg + MTX + CyA, KRP 108 days, follow-up 731 days
# [3] = Patient No. 3, Acute lymphocytic leukemia, KRP 3 mg + MTX + CyA, KRP 107 days, follow-up 734 days
# [4] = Patient No. 4, Myelodysplasia syndrome, KRP 3 mg + MTX + CyA, KRP 35 days, follow-up 532 days
# [5] = Patient No. 4, Myelodysplasia syndrome, KRP 3 mg + MTX + CyA, KRP 35 days
# [6] = Patient No. 5, B-cell lymphoma, KRP 3 mg + MTX + CyA, KRP 111 days, follow-up 819 days
# [7] = Patient No. 6, Acute myeloid leukemia, KRP 3 mg + MTX + CyA, KRP 107 days, follow-up 347 days
# [8] = Patient No. 7, Acute lymphocytic leukemia, KRP 3 mg + MTX + CyA, KRP 98 days, follow-up 727 days
# [9] = Patient No. 8, Myelodysplasia syndrome, KRP 3 mg + MTX + CyA, KRP 111 days, follow-up 704 days
# [10] = Patient No. 9, Acute myeloid leukemia, KRP 3 mg + MTX + CyA, KRP 86 days, follow-up 728 days
# [11] = Patient No. 10, Acute myeloid leukemia, KRP 3 mg + MTX + CyA, KRP 111 days, follow-up 876 days
# [12] = Patient No. 10, Acute myeloid leukemia, KRP 3 mg + MTX + CyA, KRP 111 days
# [13] = Patient No. 11, Chronic myeloid leukemia, KRP 1 mg + MTX + CyA, KRP 111 days, follow-up 617 days
# [14] = Patient No. 12, Myelodysplasia syndrome, KRP 3 mg + MTX + Tac, KRP 79 days, follow-up 110 days
# [15] = Patient No. 12, Myelodysplasia syndrome, KRP 3 mg + MTX + Tac, KRP 79 days
# [16] = Patient No. 13, Acute lymphocytic leukemia, KRP 1 mg + MTX + CyA, KRP 43 days, follow-up 326 days
# [17] = Patient No. 13, Acute lymphocytic leukemia, KRP 1 mg + MTX + CyA, KRP 43 days
# [18] = Patient No. 14, Acute myeloid leukemia, KRP 1 mg + MTX + CyA, KRP 111 days, follow-up 669 days
# [19] = Patient No. 15, Chronic myeloid leukemia, KRP 3 mg + MTX + Tac, KRP 111 days, follow-up 554 days
# [20] = Patient No. 16, Acute myeloid leukemia, KRP 3 mg + MTX + Tac, KRP 117 days, follow-up 375 days
# [21] = Patient No. 17, Acute myeloid leukemia, KRP 3 mg + MTX + Tac, KRP 111 days, follow-up 246 days
# [22] = Patient No. 18, Myelofibrosis, KRP 3 mg + MTX + Tac, KRP 111 days, follow-up 310 days
# [23] = Patient No. 18, Myelofibrosis, KRP 3 mg + MTX + Tac, KRP 111 days
# [24] = Patient No. 19, Acute myeloid leukemia, KRP 1 mg + MTX + CyA, KRP 24 days, follow-up 99 days
# [25] = Patient No. 20, Chronic myeloid leukemia, KRP 1 mg + MTX + CyA, KRP 111 days, follow-up 193 days
# [26] = Patient No. 21, Non-hodgkin lymphoma/Hodgkin disease, KRP 3 mg + MTX + Tac, KRP 62 days, follow-up 79 days
# [27] = Patient No. 21, Non-hodgkin lymphoma/Hodgkin disease, KRP 3 mg + MTX + Tac, KRP 62 days
# [28] = Patient No. 22, Non-hodgkin lymphoma/Hodgkin disease, KRP 3 mg + MTX + Tac, KRP 107 days, follow-up 264 days
# [29] = Patient No. 22, Non-hodgkin lymphoma/Hodgkin disease, KRP 3 mg + MTX + Tac, KRP 107 days
# [30] = Patient No. 23, Chronic myeloid leukemia, KRP 1 mg + MTX + CyA, KRP 111 days, follow-up 264 days
# [31] = all 23 patients, KRP 1 or 3 mg/day + MTX + CyA or Tac, Kaplan-Meier
# [32] = Chronic myeloid leukemia, 4 patients
# [33] = KRP 1 mg + MTX + CyA, 6 patients
# [34] = KRP 3 mg + MTX + CyA, 10 patients, hydrochloride
# [35] = KRP 3 mg + MTX + CyA, 10 patients, listed as 2-amino-2-[4-(3-benzyloxyphenylthio)-2-chlorophenyl] ethyl-propane-1,3-diol, hydrochloride
# [36] = KRP 3 mg + MTX + Tac, 7 patients
# [37] = Myelodysplasia syndrome, 3 patients
# [38] = Non-hodgkin lymphoma/Hodgkin disease, 2 patients
# [39] = administration period 80 days or more, 17 patients, hydrochloride
# [40] = administration period 80 days or more, 17 patients, listed as 2-amino-2-[4-(3-benzyloxyphenylthio)-2-chlorophenyl] ethyl-propane-1,3-diol, hydrochloride
# [41] = administration period 100 days or more, 15 patients, hydrochloride
# [42] = administration period 100 days or more, 15 patients, listed as 2-amino-2-[4-(3-benzyloxyphenylthio)-2-chlorophenyl] ethyl-propane-1,3-diol, hydrochloride
compound,measurement,setting,value
"Cl.NC(CO)(CO)CCc1ccc(Sc2cccc(OCc3ccccc3)c2)cc1Cl [KRP, 2-amino-2-[4-(3-benzyloxyphenylthio)-2-chlorophenyl] ethyl-propane-1,3-diol hydrochloride]",Alive/dead,[1],Alive
same,Yes/No of recurrence of hematological malignancy,[1],Yes
same,number of days of recurrence of hematological malignancies,"Patient No. 1, Multiple myeloma, KRP 3 mg + MTX + CyA, KRP 34 days",(749th day)
same,Alive/dead,[2],Alive
same,Yes/No of recurrence of hematological malignancy,[2],No
same,Alive/dead,[3],Alive
same,Yes/No of recurrence of hematological malignancy,[3],No
same,Alive/dead,[4],Dead
same,Yes/No of recurrence of hematological malignancy,[4],Yes
same,number of days of death,[5],(532nd day)
same,number of days of recurrence of hematological malignancies,[5],(287th day)
same,Alive/dead,[6],Alive
same,Yes/No of recurrence of hematological malignancy,[6],No
same,Alive/dead,[7],Alive
same,Yes/No of recurrence of hematological malignancy,[7],No
same,Alive/dead,[8],Alive
same,Yes/No of recurrence of hematological malignancy,[8],No
same,Alive/dead,[9],Alive
same,Yes/No of recurrence of hematological malignancy,[9],No
same,Alive/dead,[10],Alive
same,Yes/No of recurrence of hematological malignancy,[10],Yes
same,number of days of recurrence of hematological malignancies,"Patient No. 9, Acute myeloid leukemia, KRP 3 mg + MTX + CyA, KRP 86 days",(102nd day)
same,Alive/dead,[11],Dead
same,Yes/No of recurrence of hematological malignancy,[11],Yes
same,number of days of death,[12],(876th day)
same,number of days of recurrence of hematological malignancies,[12],(757th day)
same,Alive/dead,[13],Alive
same,Yes/No of recurrence of hematological malignancy,[13],No
same,Alive/dead,[14],Dead
same,Yes/No of recurrence of hematological malignancy,[14],Yes
same,number of days of death,[15],(110th day)
same,number of days of recurrence of hematological malignancies,[15],(110th day)
same,Alive/dead,[16],Dead
same,Yes/No of recurrence of hematological malignancy,[16],Yes
same,number of days of death,[17],(326th day)
same,number of days of recurrence of hematological malignancies,[17],(252nd day)
same,Alive/dead,[18],Alive
same,Yes/No of recurrence of hematological malignancy,[18],No
same,Alive/dead,[19],Alive
same,Yes/No of recurrence of hematological malignancy,[19],No
same,Alive/dead,[20],Alive
same,Yes/No of recurrence of hematological malignancy,[20],No
same,Alive/dead,[21],Alive
same,Yes/No of recurrence of hematological malignancy,[21],Yes
same,number of days of recurrence of hematological malignancies,"Patient No. 17, Acute myeloid leukemia, KRP 3 mg + MTX + Tac, KRP 111 days",(98th day)
same,Alive/dead,[22],Dead
same,Yes/No of recurrence of hematological malignancy,[22],Yes
same,number of days of death,[23],(310th day
same,number of days of recurrence of hematological malignancies,[23],(105th day)
same,Alive/dead,[24],Alive
same,Yes/No of recurrence of hematological malignancy,[24],Yes
same,number of days of recurrence of hematological malignancies,"Patient No. 19, Acute myeloid leukemia, KRP 1 mg + MTX + CyA, KRP 24 days",(77th day)
same,Alive/dead,[25],Alive
same,Yes/No of recurrence of hematological malignancy,[25],No
same,Alive/dead,[26],Dead
same,Yes/No of recurrence of hematological malignancy,[26],Yes
same,number of days of death,[27],(79th day
same,number of days of recurrence of hematological malignancies,[27],(49th day)
same,Alive/dead,[28],Dead
same,Yes/No of recurrence of hematological malignancy,[28],Yes
same,number of days of death,[29],(264th day
same,number of days of recurrence of hematological malignancies,[29],(121st day)
same,Alive/dead,[30],Alive
same,Yes/No of recurrence of hematological malignancy,[30],No
same,recurrence rate of hematologic malignancy one year after allogeneic hematopoietic stem cell transplantation,[31],40%
same,survival rate of the patients one year after allogeneic hematopoietic stem cell transplantation,[31],75%
same,Recurrence rate,"Acute lymphocytic leukemia, 4 patients",25%
same,Survival rate,"Acute lymphocytic leukemia, 4 patients, hydrochloride",75%
same,Survival rate,"Acute lymphocytic leukemia, 4 patients, listed as 2-amino-2-[4-(3-benzyloxyphenylthio)-2-chlorophenyl] ethyl-propane-1,3-diol, hydrochloride",75%
same,Recurrence rate,"Acute myeloid leukemia, 7 patients",43%
same,Survival rate,"Acute myeloid leukemia, 7 patients, hydrochloride",100%
same,Survival rate,"Acute myeloid leukemia, 7 patients, listed as 2-amino-2-[4-(3-benzyloxyphenylthio)-2-chlorophenyl] ethyl-propane-1,3-diol, hydrochloride",100%
same,Recurrence rate,"B-cell lymphoma, 1 patient",0%
same,Survival rate,"B-cell lymphoma, 1 patient",100%
same,Recurrence rate,[32],0%
same,Survival rate,[32],100%
same,Recurrence rate,[33],38%
same,Survival rate,[33],67%
same,Recurrence rate,[34],20%
same,Survival rate,[34],100%
same,Recurrence rate,[35],20%
same,Survival rate,[35],100%
same,Recurrence rate,[36],71%
same,Survival rate,[36],36%
same,Recurrence rate,"Multiple myeloma, 1 patient",0%
same,Survival rate,"Multiple myeloma, 1 patient",100%
same,Recurrence rate,[37],67%
same,Survival rate,[37],67%
same,Recurrence rate,"Myelofibrosis, 1 patient",100%
same,Survival rate,"Myelofibrosis, 1 patient",0%
same,Recurrence rate,[38],100%
same,Survival rate,[38],0%
same,Recurrence rate,"administration period 60 days or more, 19 patients",32%
same,Survival rate,"administration period 60 days or more, 19 patients, hydrochloride",77%
same,Survival rate,"administration period 60 days or more, 19 patients, listed as 2-amino-2-[4-(3-benzyloxyphenylthio)-2-chlorophenyl] ethyl-propane-1,3-diol, hydrochloride",77%
same,Recurrence rate,[39],24%
same,Survival rate,[39],86%
same,Recurrence rate,[40],24%
same,Survival rate,[40],86%
same,Recurrence rate,[41],20%
same,Survival rate,[41],84%
same,Recurrence rate,[42],20%
same,Survival rate,[42],84%
